Tested on: β-AP (25-35)-treated rats
Test: Morris water maze, memory impairment induced by aggregated Aβ 25-35
Type: in vivo
Settings: A β 25-35 alone
Source text: Pathological features of Alzheimer's disease (AD) include extensive neuronal loss and the presence of numerous neurofibrillary tangles and senile plaques in the brain. The senile plaques contain amyloid fibrils derived from a 39-43 amino acids peptide referred to as β-amyloid or Aβ which can produce neurotoxicity. Aβ 25-35 poccesses the similar neurotoxicity and ability of self-aggregation as Aβ 1-42. Administrated aggregated Aβ 25-35 into rat's lateral cerebral ventricle induced memory impairment in Morris water maze. […] The latency for finding the platform beginning from 3th to 5th day in (-)clausenamide 8mg • kg^-1 and 40mg • kg^-1 groups was shorter than that of A β group. […] With increasing of training days, the initial heading angle became small. On the 3th day, the initial heading angle of A β group was larger than control. […] (see Tab.3)
There are four strategies for finding platform in Morris water maze: random, circle, taxis and line. In the beginning of training the search strategies for finding target is mainly circle and random, with the increasing of training, the percentage of the two strategies declined gradually, Beginning from the 3th day, declining speed in control and (-) clausenamide group was faster than A β ,(+) clausenamide and piracetam groups. Meanwhile, the appearance of taxis and line strategies in (-) clausenamide group increased markedly. Table 3a Effects of (-),(+) Clausenamide on the number of error of β-AP (25-35)-treated rats inone trial passive avoidance. Value is represented as MEAN±S.E.M.

“A β 25-35: β-amyloid fragment with neurotoxicity and self-aggregation similar to Aβ 1-42; icv induces memory impairment (GSNKGAIIGLM; Amyloid-beta protein 42; UniProt P05067 696-706, looked up, fragment)” was tested, and the “initial heading angle, Training days 1” value was 106.3±29.8, the “initial heading angle, Training days 2” value was 98.7±30.4 and the “initial heading angle, Training days 3” value was 73.6±20.3. The “initial heading angle, Training days 4” value was 60.6±23.8 and the “initial heading angle, Training days 5” value was 46.7±19.4.

Reference: patent EP1348696B1, “Use of optically active clausenamides for the preparation of pharmaceutical compositions, pharmaceutical compositions containing the same” (INSTITUTE OF MATERIA MEDICA, CHINESE ACADEMY OF MEDICAL …, priority 2002, dated 2003)
